Data on one compound can be found in patent US20200000873A1, “METHODS FOR IMPROVING THE COGNITIVE FUNCTIONS OF A SUBJECT” (The Regents of the University of California, priority 2017, published 2020).

Data set [1] concerns Brown Norway rats. The data set is described as follows: Probabilistic reversal learning task (PRLT), single (acute) administration of oxytocin. The class given is in vivo, rat. From the text: (§1) Probabilistic learning, an aspect of executive function, can be assessed in rodents using a probabilistic reversal learning task (PRLT). A PRLT is typically a 1-hour test using two recessed lights in the back of the operant chamber as stimuli (see, FIGS. 2, 3 and 4). After illumination and subsequent extinguishing of the magazine light via nose-poke, a 2 second inter-trial interval occurs, which is then immediately followed by a 10 second period during which two apertures are illuminated wherein the rat can respond via nose-poke. One of the two stimuli is designated the target stimulus, and responses to it are rewarded more frequently (e.g., rewarded 80% of the time) (aperture light extinguished and reward delivered into the magazine) and punished less frequently (e.g., 20% of the time) (aperture light extinguished and house light illuminated for a 4-second timeout period during which no reward was delivered). The other stimulus was designated the non-target stimulus, to which responses are rewarded less frequently (e.g., 20% of the time) and punished more frequently (80% of the time). Initial target and non-target locations are alternated among the testing chambers such that the first target of the session is, for example, the left light in four of the eight chambers, and the right in the others. […] After first criterion acquisition, the target and non-target locations are reversed. The subject then has to recognize that this change, or “switch,” had occurred and adjust its responses accordingly. After another 8 consecutive correct responses, the ratios are switched again. This pattern is repeated for the remainder of the 1-hour session. The number of switches the subject is able to complete within the testing period was the primary outcome variable of PRLT to measure reversal learning. An additional primary outcome measure, trials to first criterion, provided a measure of initial reinforcement learning without the confound of reversal learning included.
(§2) Several latency measures included mean target latency (millisecond (ms) to respond in the target stimulus), mean non-target latency (ms to respond in the non-target stimulus), and mean reward latency (ms to collect the reward).
(§3) Rats (Brown Norway rats or Long Evans rats) executive function was tested using a nine-choice operant box (e.g., see FIG. 2). The nine-choice operant box has nine depressions in which a rat can poke its nose into (see FIG. 2), where each depression comprises a light emitting diode (LED). A rat was placed in the box and two of the LEDs were illuminated (e.g., see FIG. 3). One LED, the ‘target’, rewarded a rat's nose poke 80% of the time with food while the other LED, the ‘nontarget’, rewarded a rat's nose poke only 20% of the time. After eight consecutive responses in which the ‘target’ LED was selected, the reward ratios for the two LED's were switched, and the next block of testing was begun. Brown Norway rats were used as test subjects while Long Evans rats were used as controls.
(§4) Scoring of executive function was based on the number of switches a rat was able to complete within a one-hour test period, as well as the number of block changes a rat can progress through. In particular, the scoring and conclusions of executive function were made as follows:
(§5) A primary measure of executive function. The number of times the ‘target’ stimulus switches following eight consecutive “correct” responses by the subject. The number of switches a rat is able to complete within a one-hour test period indicates how quickly the rat is able to detect and adjust to reversals. The more switches completed by the rat, the better the executive function of the rat.
(§6) A primary measure of executive function. Indicates how quickly rat was able to progress through the blocks—the block changes whenever the target switches, so if the subject completed five blocks and is working on the sixth when the one hour testing session ends. […]

Data set [2] deals with Brown Norway rats. The data set can be described thus: Probabilistic reversal learning task (PRLT) after long-term (21 days) administration of oxytocin. The class given is in vivo, rat.
Description: as §1, §2, §3, §4, §5, §6

Data set [3] deals with humans. Particulars: humans treated with oxytocin, reported; cited from earlier work.
Where [4] appears, read: oxytocin 1.00 mg/kg, Brown Norway rats.

As for `CC[C@H](C)[C@@H]1NC(=O)[C@H](Cc2ccc(O)cc2)NC(=O)[C@@H](N)CSSC[C@@H](C(=O)N2CCC[C@H]2C(=O)N[C@@H](CC(C)C)C(=O)NCC(N)=O)NC(=O)[C@H](CC(N)=O)NC(=O)[C@H](CCC(N)=O)NC1=O` [oxytocin], in data set [1] (BN rats, 1.00 mg/kg vs. lower doses 0.04 mg/kg and 0.20 mg/kg), the “executive function, effect of dose” value is listed as “dose dependent”. Also, the “number of switches in the PRLT” value was “fewer switches” in data set [1] (acute OT 0.04 mg/kg, BN rats vs. vehicle-treated LE rats); “LE rats exhibited more switches” in data set [2] (BN rats previously treated with 0.04 mg/kg OT compared with LE rats); “LE rats exhibited more switches” in data set [2] (BN rats previously treated with 0.2 mg/kg OT compared with LE rats); “significantly more switches” in data set [2] (BN rats treated with 1 mg/kg OT vs. vehicle-treated BN rats, long-term administration). Besides, the “total trials to initial criterion” value in data set [1] (acute OT 1 mg/k/g, BN rats vs. both vehicle-treated BN and LE rats) is on record as “reduced”. In addition, in data set [1] (acute OT 1 mg/kg, BN rats vs. vehicle), the “total number of switches completed in the PRLT” value was “increased”. Further, in data set [1] (administration of oxytocin), the “probabilistic learning of subjects” value was “significantly improved”. Besides, in data set [1] (setting [4]), the “improvement in executive function” value was “significant”. Moreover, in data set [1] (oxytocin administered to Brown Norway rats, dose not stated), the number of switches result is “increased”. In data set [1] (oxytocin administered to animal subjects), the “executive function of the animal subjects” value is reported as “significantly improved”. In data set [2] (1 mg/kg OT vs. vehicle in BN rats, long-term administration), the “trials to first criterion” value is “appears to reduce”. Also, the “executive function after discontinuation of OT” value in data set [2] (BN rats, 1.0 mg/kg OT for 21 days, tested approximately one week or more after discontinuation) was “persistent improvement”. In addition, the “time post treatment at which improvement of executive function was seen” value in data set [2] (setting [4]) came to 7 days. Besides, the “cognitive performance and memory” value in data set [3] is “Impairments”.
